Excerpt: A preferred base for such an alkylation reaction is sodium carbonate. […] The water content of the reaction mixture may also be reduced by performing the reaction in a low pressure atmosphere (e.g a vacuum).

Q: For `O=c1[n-]c(=O)c2ccccc2o1.[Na+]` [carsalam-sodium], which “solubility in DMAC” value is on record?
A: about 6%
